Measurements taken from patent US20020032328A1, “Heterocyclic acylsulfimides, processes for their preparation, compositions comprising them and their use as pesticides” (priority 2000, published 2002).

Key:
[1] = system: black bean aphids (Aphis fabae); experiment: Aphis fabae dip test on field bean (plants and aphids dipped in preparation); type: in vivo; conditions: read-out: mortality among the aphids
[2] = system: black bean aphids (Aphis fabae); experiment: Aphis fabae root-systemic test on field bean; type: in vivo; conditions: read-out: mortality among the aphids, by root-systemic action

SMILES: C/S(=N\C(=O)c1cnccc1C(F)(F)F)c1ccsc1 (stereo not shown) [Example 66]
- mortality at 300 ppm [1]: 90 to 100%
- mortality at 30 ppm [2]: 90 to 100%

SMILES: CS(=O)(=NC(=O)c1cnccc1C(F)(F)F)c1ccc(Oc2cccc(F)c2C#N)cc1 (stereo not shown) [Example 718]
- mortality at 300 ppm [1]: 90 to 100%
- mortality at 30 ppm [2]: 90 to 100%
